Results: patent US20150344427A1 (EPIZYME, INC., priority 2012, published 2015)

Experiments:
[1] = system: H3K27 trimethylation in WSU-DLCL2 cells; experiment: WSU-DLCL2 Methylation Assay (H3K27me3 ELISA); type: cell-based; conditions: Homo sapiens, WSUDLCL2, 96 hours incubation, H3K27me3 normalised to total Histone H3
Source text: WSU-DLCL2 suspension cells were purchased from DSMZ (German Collection of Microorganisms and Cell Cultures, Braunschweig, Germany). RPMI/Glutamax Medium, Penicillin-Streptomycin, Heat Inactivated Fetal Bovine Serum, and D-PBS were purchased from Life Technologies, Grand Island, N.Y., USA. Extraction Buffer and Neutralization Buffer (5×) were purchased from Active Motif, Carlsbad, Calif., USA. Rabbit anti-Histone H3 antibody was purchased from Abcam, Cambridge, Mass., USA. Rabbit anti-H3K27me3 and HRP-conjugated anti-rabbit-IgG were purchased from Cell Signaling Technology, Danvers, Mass., USA. TMB “Super Sensitive” substrate was sourced from BioFX Laboratories, Owings Mills, Md., USA. IgG-free Bovine Serum Albumin was purchased from Jackson ImmunoResearch, West Grove, Pa., USA. PBS with Tween (10×PBST) was purchased from KPL, Gaithersburg, Md., USA. Sulfuric Acid was purchased from Ricca Chemical, Arlington, Tex., USA. Immulon ELISA plates were purchased from Thermo, Rochester, N.Y., USA. V-bottom cell culture plates were purchased from Corning Inc., Corning, N.Y., USA. V-bottom polypropylene plates were purchased from Greiner Bio-One, Monroe, N.C., USA.
(§1) WSU-DLCL2 suspension cells were maintained in growth medium (RPMI 1640 supplemented with 10% v/v heat inactivated fetal bovine serum and 100 units/mL penicillin-streptomycin) and cultured at 37° C. under 5% CO2 Under assay conditions, cells were incubated in Assay Medium (RPMI 1640 supplemented with 20% v/v heat inactivated fetal bovine serum and 100 units/mL penicillin-streptomycin) at 37° C. under 5% CO2 on a plate shaker.
WSU-DLCL2 cells were seeded in assay medium at a concentration of 50,000 cells per mL to a 96-well V-bottom cell culture plate with 200 μL per well. Compound (1 μL) from 96 well source plates was added directly to V-bottom cell plate. Plates were incubated on a titer-plate shaker at 37° C., 5% CO2 for 96 hours. After four days of incubation, plates were spun at 241×g for five minutes and medium was aspirated gently from each well of cell plate without disturbing cell pellet. Pellet was resuspended in 200 μL DPBS and plates were spun again at 241×g for five minutes. The supernatant was aspirated and cold (4° C.) Extraction buffer (100 μL) was added per well. Plates were incubated at 4° C. on orbital shaker for two hours. Plates were spun at 3427×g×10 minutes. Supernatant (80 μL per well) was transferred to its respective well in 96 well V-bottom polypropylene plate. Neutralization Buffer 5× (20 μL per well) was added to V-bottom polypropylene plate containing supernatant. V-bottom polypropylene plates containing crude histone preparation (CHP) were incubated on orbital shaker x five minutes. Crude Histone Preparations were added (2 μL per well) to each respective well into duplicate 96 well ELISA plates containing 100 μL Coating Buffer (1×PBS+BSA 0.05% w/v). Plates were sealed and incubated overnight at 4° C. The following day, plates were washed three times with 300 μL per well 1×PBST. Wells were blocked for two hours with 300 μL per well ELISA Diluent ((PBS (1×) BSA (2% w/v) and Tween20 (0.05% v/v)). Plates were washed three times with 1×PBST. For the Histone H3 detection plate, 100 μL per well were added of anti-Histone-H3 antibody (Abcam, ab1791) diluted 1:10,000 in ELISA Diluent. For H3K27 trimethylation detection plate, 100 μL per well were added of anti-H3K27me3 diluted 1:2000 in ELISA diluent. Plates were incubated for 90 minutes at room temperature. Plates were washed three times with 300 μL 1×PBST per well. For Histone H3 detection, 100 μL of HRP-conjugated anti-rabbit IgG antibody diluted to 1:6000 in ELISA diluent was added per well. For H3K27me3 detection, 100 μL of HRP conjugated anti-rabbit IgG antibody diluted to 1:4000 in ELISA diluent was added per well. Plates were incubated at room temperature for 90 minutes. Plates were washed four times with 1×PBST 300 μL per well. TMB substrate 100 μL was added per well. […]

[2] = system: WSU-DLCL2 cells; experiment: Cell Proliferation Analysis, WSU-DLCL2; type: cell-based; conditions: Homo sapiens, WSUDLCL2, 144 h, 6 days, Cell Titer Glo
Source text: WSU-DLCL2 suspension cells were purchased from DSMZ (German Collection of Microorganisms and Cell Cultures, Braunschweig, Germany). RPMI/Glutamax Medium, Penicillin-Streptomycin, Heat Inactivated Fetal Bovine Serum were purchased from Life Technologies, Grand Island, N.Y., USA. V-bottom polypropylene 384-well plates were purchased from Greiner Bio-One, Monroe, N.C., USA. Cell culture 384-well white opaque plates were purchased from Perkin Elmer, Waltham, Mass., USA. Cell-Titer Glo® was purchased from Promega Corporation, Madison, Wis., USA. SpectraMax M5 plate reader was purchased from Molecular Devices LLC, Sunnyvale, Calif., USA.
as §1, with “and” for “and 100 units/mL penicillin-streptomycin) and”, “CO2.” for “CO2”, “CO2.” for “CO2 on a plate shaker.”
For the assessment of the effect of compounds on the proliferation of the WSU-DLCL2 cell line, exponentially growing cells were plated in 384-well white opaque plates at a density of 1250 cell/ml in a final volume of 50 μl of assay medium. A compound source plate was prepared by performing triplicate nine-point 3-fold serial dilutions in DMSO, beginning at 10 mM (final top concentration of compound in the assay was 20 μM and the DMSO was 0.2%). A 100 nL aliquot from the compound stock plate was added to its respective well in the cell plate. […] After addition of compounds, assay plates were incubated for 6 days at 37° C., 5% CO2, relative humidity >90% for 6 days. Cell viability was measured by quantization of ATP present in the cell cultures, adding 35 μl of Cell Titer Glo® reagent to the cell plates. Luminescence was read in the SpectraMax M5. The concentration inhibiting cell viability by 50% was determined using a 4-parametric fit of the normalized dose response curves.

[3] = biological target: T1, wild-type EZH2 (PRC2 enzyme) (Homo sapiens, UniProt Q15910); experiment: PRC2 enzyme assay on peptide substrate, wild-type EZH2; type: biochemical; conditions: wild-type PRC2 enzyme 4 nM, H3K27me0 peptide, 3H-SAM Flashplate; read-out: WT EZH2 IC50
T1 construct: made in house; host or cells: Spodoptera frugiperda (sf9) cells, baculovirus
T1 sequence (Q15910 whole entry): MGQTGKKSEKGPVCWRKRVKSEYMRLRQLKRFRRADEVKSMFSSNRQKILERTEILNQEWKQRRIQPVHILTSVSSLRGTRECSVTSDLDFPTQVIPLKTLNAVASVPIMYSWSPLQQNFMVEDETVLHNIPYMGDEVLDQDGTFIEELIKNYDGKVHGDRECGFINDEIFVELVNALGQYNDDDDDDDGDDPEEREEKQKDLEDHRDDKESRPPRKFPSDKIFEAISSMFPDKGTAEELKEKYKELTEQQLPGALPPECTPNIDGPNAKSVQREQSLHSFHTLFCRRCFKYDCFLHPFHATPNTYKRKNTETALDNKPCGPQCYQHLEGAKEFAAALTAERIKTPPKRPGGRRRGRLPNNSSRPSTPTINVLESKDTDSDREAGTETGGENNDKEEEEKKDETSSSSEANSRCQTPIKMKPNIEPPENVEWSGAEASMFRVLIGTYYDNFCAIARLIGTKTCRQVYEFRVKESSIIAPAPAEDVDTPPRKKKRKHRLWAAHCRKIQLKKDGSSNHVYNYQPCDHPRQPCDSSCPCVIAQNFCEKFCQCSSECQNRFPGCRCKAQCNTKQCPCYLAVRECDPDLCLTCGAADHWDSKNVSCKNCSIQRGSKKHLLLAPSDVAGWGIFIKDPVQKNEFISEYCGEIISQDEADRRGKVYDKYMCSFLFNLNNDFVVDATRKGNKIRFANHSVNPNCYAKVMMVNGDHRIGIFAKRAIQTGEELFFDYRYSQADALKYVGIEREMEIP
T1 sequence (O75530 whole entry partner): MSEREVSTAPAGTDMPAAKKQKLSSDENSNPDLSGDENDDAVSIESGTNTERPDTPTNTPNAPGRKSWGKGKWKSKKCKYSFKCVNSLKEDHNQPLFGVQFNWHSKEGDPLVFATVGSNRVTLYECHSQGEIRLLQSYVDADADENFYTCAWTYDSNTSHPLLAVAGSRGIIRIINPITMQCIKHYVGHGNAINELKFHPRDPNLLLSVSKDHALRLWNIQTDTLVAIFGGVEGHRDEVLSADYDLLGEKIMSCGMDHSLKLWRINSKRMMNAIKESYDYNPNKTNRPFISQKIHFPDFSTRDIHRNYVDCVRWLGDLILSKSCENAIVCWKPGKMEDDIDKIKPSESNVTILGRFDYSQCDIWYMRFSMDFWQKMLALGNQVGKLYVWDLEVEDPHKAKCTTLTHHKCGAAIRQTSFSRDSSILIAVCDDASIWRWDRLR
T1 sequence (Q15022 whole entry partner): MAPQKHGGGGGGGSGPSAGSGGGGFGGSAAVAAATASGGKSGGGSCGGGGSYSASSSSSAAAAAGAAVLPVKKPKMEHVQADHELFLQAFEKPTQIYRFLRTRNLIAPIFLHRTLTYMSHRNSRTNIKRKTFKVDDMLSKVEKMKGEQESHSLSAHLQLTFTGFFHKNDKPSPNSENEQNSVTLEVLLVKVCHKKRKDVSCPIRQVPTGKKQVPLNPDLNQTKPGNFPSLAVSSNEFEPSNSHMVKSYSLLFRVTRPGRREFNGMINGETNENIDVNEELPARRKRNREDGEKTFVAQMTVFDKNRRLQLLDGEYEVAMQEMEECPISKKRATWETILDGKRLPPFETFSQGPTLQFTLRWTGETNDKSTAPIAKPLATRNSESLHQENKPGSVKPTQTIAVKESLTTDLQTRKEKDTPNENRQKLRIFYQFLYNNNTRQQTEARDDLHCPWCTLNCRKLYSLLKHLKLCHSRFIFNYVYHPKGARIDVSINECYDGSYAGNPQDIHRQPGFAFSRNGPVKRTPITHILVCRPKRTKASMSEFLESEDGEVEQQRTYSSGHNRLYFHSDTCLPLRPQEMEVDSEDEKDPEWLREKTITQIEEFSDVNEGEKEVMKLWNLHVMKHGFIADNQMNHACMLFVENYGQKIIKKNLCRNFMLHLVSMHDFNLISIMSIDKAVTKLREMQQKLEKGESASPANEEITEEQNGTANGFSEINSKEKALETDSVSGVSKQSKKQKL
T1 sequence (Q09028 whole entry partner): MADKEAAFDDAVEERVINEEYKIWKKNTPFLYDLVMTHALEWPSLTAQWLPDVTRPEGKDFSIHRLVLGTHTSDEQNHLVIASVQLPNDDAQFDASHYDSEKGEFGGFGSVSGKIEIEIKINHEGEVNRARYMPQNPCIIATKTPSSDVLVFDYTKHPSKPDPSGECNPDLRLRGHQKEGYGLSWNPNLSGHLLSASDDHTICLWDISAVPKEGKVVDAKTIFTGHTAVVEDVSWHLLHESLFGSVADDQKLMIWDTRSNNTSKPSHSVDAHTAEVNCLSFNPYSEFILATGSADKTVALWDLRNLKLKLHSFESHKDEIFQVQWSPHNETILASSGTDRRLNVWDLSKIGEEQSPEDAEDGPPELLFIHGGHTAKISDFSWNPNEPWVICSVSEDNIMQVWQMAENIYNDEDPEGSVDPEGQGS
Source text: (§2) General Materials. S-adenosylmethionine (SAM), S-adenosylhomocyteine (SAH), bicine, KCl, Tween20, dimethylsulfoxide (DMSO) and bovine skin gelatin (BSG) were purchased from Sigma-Aldrich at the highest level of purity possible. Dithiothreitol (DTT) was purchased from EMD. ^3H-SAM was purchased from American Radiolabeled Chemicals with a specific activity of 80 Ci/mmol. 384-well streptavidin Flashplates were purchased from PerkinElmer.
(§3) Peptides representative of human histone H3 residues 21-44 containing either an unmodified lysine 27 (H3K27me0) or dimethylated lysine 27 (H3K27me2) were synthesized with a C-terminal G(K-biotin) linker-affinity tag motif and a C-terminal amide cap by 21st Century Biochemicals. […] The sequences are listed below.
(§4) Human PRC2 enzymes were purified as 4-component enzyme complexes co-expressed in Spodoptera frugiperda (sf9) cells using a baculovirus expression system. […] The EED subunit contained an N-terminal FLAG tag that was used to purify the entire 4-component complex from sf9 cell lysates.
(§5) The assays were all performed in a buffer consisting of 20 mM bicine (pH=7.6), 0.5 mM DTT, 0.005% BSG and 0.002% Tween20, prepared on the day of use. Compounds in 100% DMSO (1 μL) were spotted into polypropylene 384-well V-bottom plates (Greiner) using a Platemate 2×3 outfitted with a 384-channel pipet head (Thermo). DMSO (1 μL) was added to columns 11, 12, 23, 24, rows A-H for the maximum signal control, and SAH, a known product and inhibitor of PRC2 (1 μL) was added to columns 11,12, 23, 24, rows I-P for the minimum signal control. A cocktail (40 μL) containing the wild-type PRC2 enzyme and H3K27me0 peptide or any of the Y641 mutant enzymes and H3K27me2 peptide was added by Multidrop Combi (Thermo). The compounds were allowed to incubate with PRC2 for 30 min at 25° C., then a cocktail (10 μL) containing a mixture of non-radioactive and ^3H-SAM was added to initiate the reaction (final volume=51 μL). In all cases, the final concentrations were as follows: wild-type or mutant PRC2 enzyme was 4 nM, SAH in the minimum signal control wells was 1 mM and the DMSO concentration was 1%. The assays were stopped by the addition of non-radioactive SAM (10 μL) to a final concentration of 600 μM, which dilutes the ^3H-SAM to a level where its incorporation into the peptide substrate is no longer detectable. 50 μL of the reaction in the 384-well polypropylene plate was then transferred to a 384-well Flashplate and the biotinylated peptides were allowed to bind to the streptavidin surface for at least 1 h before being washed three times with 0.1% Tween20 in a Biotek ELx405 plate washer. The plates were then read in a PerkinElmer TopCount platereader to measure the quantity of ^3H-labeled peptide bound to the Flashplate surface, measured as disintegrations per minute (dpm) or alternatively, referred to as counts per minute (cpm).
(§6) Where dpm=disintegrations per minute, cmpd=signal in assay well, and min and max are the respective minimum and maximum signal controls.
(§7) Where top and bottom are the normally allowed to float, but may be fixed at 100 or 0 respectively in a 3-parameter fit. The Hill Coefficient normally allowed to float but may also be fixed at 1 in a 3-parameter fit. Y is the % inhibition and X is the compound concentration.

[4] = biological target: T2, EZH2 Y641F mutant (PRC2 enzyme) (Homo sapiens, UniProt Q15910, Y641F); experiment: PRC2 enzyme assay on peptide substrate, EZH2 Y641F mutant; type: biochemical; conditions: Y641F mutant PRC2 enzyme 4 nM, H3K27me2 peptide, 3H-SAM Flashplate
T2 construct: made in house; host or cells: Spodoptera frugiperda (sf9) cells, baculovirus
T2 sequence (Q15910 whole entry Y641F): as the sequence (Q15910 whole entry) above, with Y641F counted along it
T2 sequence (O75530 whole entry partner): as the sequence (O75530 whole entry partner) above
T2 sequence (Q15022 whole entry partner): as the sequence (Q15022 whole entry partner) above
T2 sequence (Q09028 whole entry partner): as the sequence (Q09028 whole entry partner) above
Source text: as §2, §3, §4, §5, §6, §7

Structure (SMILES) | IC50 [3] | IC50 [4] | IC50 [1] | IC50 [2]
CCN(c1cc(-c2ccc(CN3CCOCC3)cc2)cc(C(=O)NCc2c(C)[nH]c(C)cc2=O)c1C)C1CCOCC1 [Compound 2, N-((2,6-dimethyl-4-oxo-1,4-dihydropyridin-3-yl)methyl)-5-(ethyl(tetrahydro-2H-pyran-4-yl)amino)-4-methyl-4′-(morpholinomethyl)-[1,1′-biphenyl]-3-carboxamide] |  |  | 8040 nM | 19500 nM
CCN(c1cc(-c2ccc(CN3CCOCC3)cc2)cc(C(=O)NCc2c(Cl)[nH]c(C)cc2=O)c1C)C1CCOCC1 [Compound 4, N-((2-chloro-6-methyl-4-oxo-1,4-dihydropyridin-3-yl)methyl)-5-(ethyl(tetrahydro-2H-pyran-4-yl)amino)-4-methyl-4′-(morpholinomethyl)-[1,1′-biphenyl]-3-carboxamide] |  |  | 9070 nM | 6720 nM
CCN(c1cc(C#CCN2CCOCC2)cc(C(=O)NCc2c(C)[nH]c(C)cc2=O)c1C)[C@H]1CC[C@H](N(C)C)CC1 [Compound 95] | 17 nM | 12 nM | 11400 nM | 
CCN(c1cc(C#CC2(C)COC2)cc(C(=O)NCc2c(C)[nH]c(C)cc2=O)c1C)[C@H]1CC[C@H](N(C)C)CC1 [Compound 97] | 5 nM | 8 nM | 9200 nM | 
CCN(c1cc(-c2ccc(CN3CCOCC3)cc2)cc(C(=O)NCc2c(C)[nH]c(C)cc2=O)c1C)[C@H]1CC[C@H](N(C)C)CC1 [Compound 98] |  |  | 3100 nM | 4400 nM
CCN(c1cc(Cl)cc(C(=O)NCc2c(C)[nH]c(C)cc2=O)c1C)C1CCN(CCOC)CC1 [Compound 103] | 360 nM | 341 nM | 41300 nM | 
CCN(c1cc(Cl)cc(C(=O)NCc2c(Cl)[nH]c(C)cc2=O)c1C)C1CCN(CCOC)CC1 [Compound 104] | 870 nM | 598 nM | 49500 nM | 

Now from value to compound, other results behind:

IC50 [3] | IC50 [4] | Structure (SMILES) | IC50 [1] | IC50 [2]
130 nM | 118 nM | CCN(c1cc(C#CCN2CCOCC2)cc(C(=O)NCc2c(Cl)[nH]c(C)cc2=O)c1C)[C@H]1CC[C@H](N(C)C)CC1 [Compound 96] | 4300 nM | 
1 nM | 5 nM | CCN(c1cc(Cl)cc(C(=O)NCc2c(C)[nH]c(C)cc2=O)c1C)[C@H]1CC[C@H](N(C)Cc2cccc(OC)c2)CC1 [Compound 99] | 560 nM | 
15 nM | 10 nM | CCN(c1cc(Cl)cc(C(=O)NCc2c(Cl)[nH]c(C)cc2=O)c1C)[C@H]1CC[C@H](N(C)Cc2cccc(OC)c2)CC1 [Compound 101] | 3000 nM | 
150 nM | 93 nM | CCN(c1cc(-c2ccc(OCCOC)cc2)cc(C(=O)NCc2c(Cl)[nH]c(C)cc2=O)c1C)[C@H]1CC[C@H](N(C)CCOC)CC1 [Compound 102] | 10800 nM | 
